# In ChEMBL document CHEMBL5291721, “A preclinical secondary pharmacology resource illuminates target-adverse drug reaction associations of marketed drugs” (Nat Commun, 2023):
# What was measured:
# [1] = target: Gamma-aminobutyric acid receptor subunit alpha-1/alpha-2/beta-2/gamma-2 (Homo sapiens, UniProt P14867+P18507+P47869+P47870); format: functional, cell-based
# Adenosine receptor A1 = target: T1, Adenosine receptor A1 (Homo sapiens, UniProt P30542)
# T1 sequence (P30542 whole entry): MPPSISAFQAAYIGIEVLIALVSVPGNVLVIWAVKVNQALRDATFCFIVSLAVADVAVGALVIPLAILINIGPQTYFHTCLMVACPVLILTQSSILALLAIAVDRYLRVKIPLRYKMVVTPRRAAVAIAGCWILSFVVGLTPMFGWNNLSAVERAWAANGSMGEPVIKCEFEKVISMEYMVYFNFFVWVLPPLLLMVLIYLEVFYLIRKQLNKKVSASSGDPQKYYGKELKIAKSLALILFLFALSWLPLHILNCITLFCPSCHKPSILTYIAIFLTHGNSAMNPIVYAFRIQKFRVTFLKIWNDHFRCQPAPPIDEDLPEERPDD
# Glucocorticoid receptor = target: T2, Glucocorticoid receptor (Homo sapiens, UniProt P04150); format: functional
# T2 sequence (P04150 whole entry): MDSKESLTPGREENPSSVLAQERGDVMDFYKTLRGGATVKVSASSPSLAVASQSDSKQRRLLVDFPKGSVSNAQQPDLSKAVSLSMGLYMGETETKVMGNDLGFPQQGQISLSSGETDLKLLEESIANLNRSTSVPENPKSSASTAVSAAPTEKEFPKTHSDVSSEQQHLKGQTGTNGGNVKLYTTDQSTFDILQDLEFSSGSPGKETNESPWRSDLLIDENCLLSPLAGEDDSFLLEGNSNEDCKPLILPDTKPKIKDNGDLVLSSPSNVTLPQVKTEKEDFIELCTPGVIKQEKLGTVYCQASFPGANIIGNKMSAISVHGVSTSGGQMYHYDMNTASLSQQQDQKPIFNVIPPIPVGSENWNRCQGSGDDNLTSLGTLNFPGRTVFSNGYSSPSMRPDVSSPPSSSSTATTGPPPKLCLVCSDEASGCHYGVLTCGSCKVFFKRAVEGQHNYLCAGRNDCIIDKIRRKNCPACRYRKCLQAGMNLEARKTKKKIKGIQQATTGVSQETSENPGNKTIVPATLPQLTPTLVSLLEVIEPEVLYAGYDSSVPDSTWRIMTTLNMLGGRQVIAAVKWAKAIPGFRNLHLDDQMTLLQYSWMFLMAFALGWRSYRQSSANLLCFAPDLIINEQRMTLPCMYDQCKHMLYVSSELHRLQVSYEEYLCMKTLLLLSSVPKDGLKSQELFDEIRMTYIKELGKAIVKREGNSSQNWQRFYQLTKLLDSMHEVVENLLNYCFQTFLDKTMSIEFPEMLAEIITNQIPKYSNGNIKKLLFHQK
# Estrogen receptor [2] = target: T3, Estrogen receptor (Homo sapiens, UniProt P03372); format: functional
# T3 sequence (P03372 whole entry): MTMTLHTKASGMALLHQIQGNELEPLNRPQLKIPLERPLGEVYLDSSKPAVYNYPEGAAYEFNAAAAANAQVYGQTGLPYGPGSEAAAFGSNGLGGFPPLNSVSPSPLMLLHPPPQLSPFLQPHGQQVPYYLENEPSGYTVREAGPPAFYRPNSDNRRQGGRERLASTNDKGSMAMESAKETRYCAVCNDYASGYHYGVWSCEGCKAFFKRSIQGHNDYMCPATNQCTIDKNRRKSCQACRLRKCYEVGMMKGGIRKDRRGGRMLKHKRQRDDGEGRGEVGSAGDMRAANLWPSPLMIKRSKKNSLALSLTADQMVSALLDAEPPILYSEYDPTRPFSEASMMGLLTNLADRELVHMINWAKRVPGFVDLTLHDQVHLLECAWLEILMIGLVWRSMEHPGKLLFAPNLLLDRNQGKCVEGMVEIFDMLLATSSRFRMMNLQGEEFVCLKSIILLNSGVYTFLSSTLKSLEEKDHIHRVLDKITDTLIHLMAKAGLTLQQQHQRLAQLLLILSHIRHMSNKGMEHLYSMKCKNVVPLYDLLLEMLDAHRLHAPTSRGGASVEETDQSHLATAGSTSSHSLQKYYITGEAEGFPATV
# Estrogen receptor [3] = target: T3, Estrogen receptor; format: functional; remark: listed apart in the source
# Androgen receptor = target: T4, Androgen receptor (Homo sapiens, UniProt P10275)
# T4 sequence (P10275 whole entry): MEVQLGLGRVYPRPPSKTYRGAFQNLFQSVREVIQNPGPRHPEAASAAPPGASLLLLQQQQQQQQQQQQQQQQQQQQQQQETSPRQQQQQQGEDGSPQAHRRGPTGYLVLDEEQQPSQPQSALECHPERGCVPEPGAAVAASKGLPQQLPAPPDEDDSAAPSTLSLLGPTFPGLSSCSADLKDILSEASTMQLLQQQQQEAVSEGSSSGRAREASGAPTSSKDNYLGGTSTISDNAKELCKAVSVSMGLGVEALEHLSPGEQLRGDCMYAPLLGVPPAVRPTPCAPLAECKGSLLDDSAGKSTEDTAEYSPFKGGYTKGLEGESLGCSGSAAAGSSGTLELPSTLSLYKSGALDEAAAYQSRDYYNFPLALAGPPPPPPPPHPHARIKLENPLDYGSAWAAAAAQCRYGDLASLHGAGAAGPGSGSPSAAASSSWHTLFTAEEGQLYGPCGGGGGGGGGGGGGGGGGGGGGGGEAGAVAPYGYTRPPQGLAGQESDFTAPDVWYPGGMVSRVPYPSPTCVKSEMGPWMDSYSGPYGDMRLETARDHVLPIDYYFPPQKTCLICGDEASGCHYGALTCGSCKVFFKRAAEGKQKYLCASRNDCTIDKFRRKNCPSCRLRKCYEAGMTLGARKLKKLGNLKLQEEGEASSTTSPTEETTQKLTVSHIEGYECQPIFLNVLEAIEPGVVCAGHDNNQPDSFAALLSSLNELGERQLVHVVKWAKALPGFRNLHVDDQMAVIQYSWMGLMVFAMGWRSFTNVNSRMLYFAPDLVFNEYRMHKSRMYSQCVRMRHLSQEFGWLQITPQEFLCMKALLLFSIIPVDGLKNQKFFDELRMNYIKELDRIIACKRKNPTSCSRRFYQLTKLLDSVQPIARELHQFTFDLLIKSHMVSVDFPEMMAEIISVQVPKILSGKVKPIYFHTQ
# [4] = target: Epidermal growth factor receptor (Homo sapiens, UniProt P00533); format: functional
# Note: assay procedure not described here.
# Sequence of Epidermal growth factor receptor (P00533 whole entry): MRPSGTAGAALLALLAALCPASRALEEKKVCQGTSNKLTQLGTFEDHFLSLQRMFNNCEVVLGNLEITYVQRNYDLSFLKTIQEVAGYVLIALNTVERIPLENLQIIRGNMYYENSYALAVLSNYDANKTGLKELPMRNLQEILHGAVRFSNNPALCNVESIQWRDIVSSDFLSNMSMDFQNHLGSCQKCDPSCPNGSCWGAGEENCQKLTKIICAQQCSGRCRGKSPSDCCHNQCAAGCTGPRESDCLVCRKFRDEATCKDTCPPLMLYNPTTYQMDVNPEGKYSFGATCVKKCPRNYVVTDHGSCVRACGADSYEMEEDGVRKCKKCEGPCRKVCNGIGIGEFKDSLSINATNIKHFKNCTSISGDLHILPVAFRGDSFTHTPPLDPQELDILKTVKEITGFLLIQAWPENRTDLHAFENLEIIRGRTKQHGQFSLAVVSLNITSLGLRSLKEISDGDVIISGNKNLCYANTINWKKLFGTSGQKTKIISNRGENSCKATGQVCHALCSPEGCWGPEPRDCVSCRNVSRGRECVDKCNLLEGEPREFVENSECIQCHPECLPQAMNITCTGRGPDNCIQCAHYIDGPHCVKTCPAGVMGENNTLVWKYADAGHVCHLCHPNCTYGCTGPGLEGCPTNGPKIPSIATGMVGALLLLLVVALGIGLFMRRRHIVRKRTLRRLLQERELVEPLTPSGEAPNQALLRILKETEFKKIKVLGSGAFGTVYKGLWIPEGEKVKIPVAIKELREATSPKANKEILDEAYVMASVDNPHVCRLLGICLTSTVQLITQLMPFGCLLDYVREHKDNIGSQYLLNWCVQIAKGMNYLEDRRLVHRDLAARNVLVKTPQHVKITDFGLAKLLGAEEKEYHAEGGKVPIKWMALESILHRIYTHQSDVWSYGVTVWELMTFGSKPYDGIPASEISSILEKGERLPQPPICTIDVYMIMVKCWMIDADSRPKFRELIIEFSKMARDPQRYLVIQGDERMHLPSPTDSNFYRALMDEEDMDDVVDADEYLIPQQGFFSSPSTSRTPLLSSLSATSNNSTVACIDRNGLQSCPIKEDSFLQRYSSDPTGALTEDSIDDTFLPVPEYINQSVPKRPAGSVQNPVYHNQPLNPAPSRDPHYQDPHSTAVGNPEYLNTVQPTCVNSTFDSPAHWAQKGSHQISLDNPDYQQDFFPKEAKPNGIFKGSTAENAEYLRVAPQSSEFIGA
# Sequence of Gamma-aminobutyric acid receptor subunit alpha-1/alpha-2/beta-2/gamma-2 (P14867 whole entry): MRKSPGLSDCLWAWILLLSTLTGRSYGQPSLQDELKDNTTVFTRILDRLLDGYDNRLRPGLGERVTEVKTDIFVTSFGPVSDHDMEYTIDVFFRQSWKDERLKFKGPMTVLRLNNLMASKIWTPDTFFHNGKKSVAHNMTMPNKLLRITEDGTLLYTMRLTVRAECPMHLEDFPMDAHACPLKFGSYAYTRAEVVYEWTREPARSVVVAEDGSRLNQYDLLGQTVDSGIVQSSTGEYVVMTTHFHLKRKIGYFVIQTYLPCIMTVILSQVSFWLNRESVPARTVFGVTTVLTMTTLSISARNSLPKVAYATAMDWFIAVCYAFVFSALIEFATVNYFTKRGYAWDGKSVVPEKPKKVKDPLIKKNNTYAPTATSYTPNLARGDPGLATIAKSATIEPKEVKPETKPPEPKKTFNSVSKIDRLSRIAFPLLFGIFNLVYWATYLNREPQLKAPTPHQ
# Sequence of Gamma-aminobutyric acid receptor subunit alpha-1/alpha-2/beta-2/gamma-2 (P47870 whole entry): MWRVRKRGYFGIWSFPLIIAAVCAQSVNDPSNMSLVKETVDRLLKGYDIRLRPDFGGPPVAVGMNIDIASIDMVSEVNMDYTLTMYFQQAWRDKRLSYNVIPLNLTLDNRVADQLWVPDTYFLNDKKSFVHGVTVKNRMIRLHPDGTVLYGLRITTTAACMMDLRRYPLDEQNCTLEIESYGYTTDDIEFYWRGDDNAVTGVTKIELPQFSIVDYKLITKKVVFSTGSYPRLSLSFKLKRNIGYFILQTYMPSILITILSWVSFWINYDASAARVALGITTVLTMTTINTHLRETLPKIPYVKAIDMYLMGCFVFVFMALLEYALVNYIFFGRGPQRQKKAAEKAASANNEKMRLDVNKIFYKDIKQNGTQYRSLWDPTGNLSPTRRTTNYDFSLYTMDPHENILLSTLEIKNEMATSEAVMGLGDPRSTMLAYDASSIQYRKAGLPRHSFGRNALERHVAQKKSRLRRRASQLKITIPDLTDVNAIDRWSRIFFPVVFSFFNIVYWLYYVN
# Sequence of Gamma-aminobutyric acid receptor subunit alpha-1/alpha-2/beta-2/gamma-2 (P18507 whole entry): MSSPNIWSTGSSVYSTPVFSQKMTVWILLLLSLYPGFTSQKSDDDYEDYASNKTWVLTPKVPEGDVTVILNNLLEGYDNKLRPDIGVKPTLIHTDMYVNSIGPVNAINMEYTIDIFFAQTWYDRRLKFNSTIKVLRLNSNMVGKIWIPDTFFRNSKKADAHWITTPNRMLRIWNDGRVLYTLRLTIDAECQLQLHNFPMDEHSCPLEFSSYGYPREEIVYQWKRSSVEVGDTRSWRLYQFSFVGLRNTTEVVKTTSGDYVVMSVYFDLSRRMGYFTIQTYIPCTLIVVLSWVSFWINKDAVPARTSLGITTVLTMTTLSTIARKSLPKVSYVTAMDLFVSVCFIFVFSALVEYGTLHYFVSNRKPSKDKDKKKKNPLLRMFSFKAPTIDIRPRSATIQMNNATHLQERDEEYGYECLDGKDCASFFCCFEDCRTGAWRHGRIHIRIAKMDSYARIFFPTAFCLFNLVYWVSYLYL
# Sequence of Gamma-aminobutyric acid receptor subunit alpha-1/alpha-2/beta-2/gamma-2 (P47869 whole entry): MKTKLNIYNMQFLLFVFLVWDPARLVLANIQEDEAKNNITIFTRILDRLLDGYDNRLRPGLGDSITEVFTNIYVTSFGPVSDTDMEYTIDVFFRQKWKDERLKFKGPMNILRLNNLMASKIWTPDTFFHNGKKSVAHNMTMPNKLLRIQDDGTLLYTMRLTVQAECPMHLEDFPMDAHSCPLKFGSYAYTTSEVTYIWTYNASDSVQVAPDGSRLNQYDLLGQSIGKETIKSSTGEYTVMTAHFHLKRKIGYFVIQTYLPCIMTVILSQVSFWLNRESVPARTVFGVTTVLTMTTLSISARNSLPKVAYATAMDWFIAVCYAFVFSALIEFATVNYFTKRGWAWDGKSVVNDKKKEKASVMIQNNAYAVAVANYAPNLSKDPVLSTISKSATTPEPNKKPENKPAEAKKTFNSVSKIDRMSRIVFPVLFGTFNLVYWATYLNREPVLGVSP
smiles,measurement,setting,value
C#CCN(C)Cc1ccccc1 [PARGYLINE],AC50,[1],> 30 µM
same,AC50,Adenosine receptor A1,> 30 µM
CC(C)(CO)c1cc2cc(NC(=O)C3(c4ccc5c(c4)OC(F)(F)O5)CC3)c(F)cc2n1C[C@@H](O)CO [TEZACAFTOR],AC50,Glucocorticoid receptor,> 30 µM
same,AC50,Estrogen receptor [2],> 30 µM
same,AC50,Estrogen receptor [3],> 30 µM
CCCCCCO[C@@H](C)c1cccc(-c2csc(NC(=O)c3cc(Cl)c(/C=C(\C)C(=O)O)c(Cl)c3)n2)c1OC [LUSUTROMBOPAG],AC50,Adenosine receptor A1,> 30 µM
same,AC50,Androgen receptor,> 30 µM
C[C@]12CC[C@@H]3c4ccc(OC(=O)N(CCCl)CCCl)cc4CC[C@H]3[C@@H]1CC[C@@H]2OP(=O)(O)O [ESTRAMUSTINE PHOSPHATE],AC50,Androgen receptor,> 30 µM
CC(C)NC[C@H](O)COc1ccc(O)cc1 [PRENALTEROL],AC50,Androgen receptor,> 30 µM
CC(C)/N=c1\cc2n(-c3ccc(Cl)cc3)c3ccccc3nc-2cc1Nc1ccc(Cl)cc1 [CLOFAZIMINE],AC50,Glucocorticoid receptor,> 30 µM
N#Cc1ccnc(N2C(=O)CC[C@H]2C(=O)N(c2cncc(F)c2)[C@H](C(=O)NC2CC(F)(F)C2)c2ccccc2Cl)c1 [IVOSIDENIB],AC50,Androgen receptor,> 30 µM
CC(=O)SCC(Cc1ccccc1)C(=O)NCC(=O)OCc1ccccc1 (stereo unspecified) [RACECADOTRIL],AC50,Glucocorticoid receptor,6.3 µM
OC[C@H]1NC[C@H](O)[C@@H](O)[C@H]1O,AC50,Adenosine receptor A1,> 30 µM
same,AC50,Androgen receptor,> 30 µM
CN1CC2c3ccccc3Oc3ccc(Cl)cc3C2C1 (stereo unspecified) [ASENAPINE],AC50,[4],> 30 µM
same,AC50,[1],6.5 µM
same,AC50,Glucocorticoid receptor,> 30 µM
same,AC50,Estrogen receptor [2],> 30 µM
same,AC50,Estrogen receptor [3],> 30 µM
CS(=O)(=O)Nc1ccc([N+](=O)[O-])cc1Oc1ccccc1 [NIMESULIDE],AC50,[1],> 30 µM
COc1cc2c(cc1OC)C1CC(=O)C(CC(C)C)CN1CC2 (stereo unspecified) [TETRABENAZINE],AC50,[4],> 30 µM
same,AC50,[1],> 30 µM
same,AC50,Estrogen receptor [2],> 30 µM
same,AC50,Estrogen receptor [3],> 30 µM
O=c1[nH]c2ccccc2n1CCN1CCN(c2cccc(C(F)(F)F)c2)CC1 [FLIBANSERIN],AC50,Androgen receptor,> 30 µM
O=C(O)[C@H]1/C(=C/CO)O[C@@H]2CC(=O)N21 [CLAVULANIC ACID],AC50,[1],> 30 µM
same,AC50,Glucocorticoid receptor,> 30 µM
same,AC50,Estrogen receptor [2],> 30 µM
same,AC50,Estrogen receptor [3],> 30 µM
Cc1c(C)c2c(c(C)c1O)CCC(C)(COc1ccc(CC3SC(=O)NC3=O)cc1)O2 (stereo unspecified) [TROGLITAZONE],AC50,[1],6.8 µM
same,AC50,Estrogen receptor [2],> 30 µM
same,AC50,Estrogen receptor [3],> 30 µM
same,AC50,Androgen receptor,5.72 µM
C[C@H](CCC(=O)O)[C@H]1CC[C@H]2[C@@H]3[C@H](O)C[C@@H]4C[C@H](O)CC[C@]4(C)[C@H]3CC[C@]12C [CHENODIOL],AC50,[4],> 30 µM
same,AC50,[1],> 30 µM
same,AC50,Estrogen receptor [2],> 30 µM
same,AC50,Estrogen receptor [3],> 30 µM
N[C@@H](Cc1cc(I)c(Oc2cc(I)c(O)c(I)c2)c(I)c1)C(=O)O [LEVOTHYROXINE],AC50,[1],> 30 µM
CN(C)CCOC(c1ccc(Cl)cc1)c1ccccn1 (stereo unspecified) [CARBINOXAMINE],AC50,[1],> 30 µM
C[C@@H](CN1CC(=O)NC(=O)C1)N1CC(=O)NC(=O)C1 [DEXRAZOXANE],AC50,Androgen receptor,> 30 µM
COc1cccc2c1C(=O)c1c(O)c3c(c(O)c1C2=O)C[C@@](O)(C(=O)CO)C[C@@H]3O[C@H]1C[C@H](N)[C@H](O[C@@H]2CCCCO2)[C@H](C)O1 [PIRARUBICIN],AC50,Adenosine receptor A1,> 30 µM
same,AC50,Androgen receptor,> 30 µM
c1cnc2cc3c(cc2n1)[C@@H]1CNC[C@H]3C1 [VARENICLINE],AC50,[4],> 30 µM
same,AC50,[1],> 30 µM
same,AC50,Estrogen receptor [2],> 30 µM
same,AC50,Estrogen receptor [3],4.6 µM
CC(=O)Oc1ccccc1C(=O)O [ASPIRIN],AC50,Androgen receptor,> 30 µM
CO[C@@]1(NC(=O)C(C(=O)O)c2ccc(O)cc2)C(=O)N2C(C(=O)O)=C(CSc3nnnn3C)CO[C@@H]21 (stereo partly specified) [MOXALACTAM],AC50,Adenosine receptor A1,> 30 µM
CN(C)CCCC1(c2ccc(F)cc2)OCc2cc(C#N)ccc21 (stereo unspecified) [CITALOPRAM],AC50,Adenosine receptor A1,> 30 µM
CC(C)(Oc1ccc(Cl)cc1)C(=O)NC(=O)NCN1CCOCC1 [PLAFIBRIDE],AC50,Androgen receptor,> 30 µM
Nc1c2c(nc3ccccc13)CCCC2O (stereo unspecified) [VELNACRINE],AC50,[4],> 30 µM
same,AC50,[1],> 30 µM
same,AC50,Glucocorticoid receptor,14 µM
same,AC50,Estrogen receptor [2],> 30 µM
same,AC50,Estrogen receptor [3],> 10 µM
CCC[C@@]1(CCc2ccccc2)CC(O)=C([C@H](CC)c2cccc(NS(=O)(=O)c3ccc(C(F)(F)F)cn3)c2)C(=O)O1,AC50,[4],> 30 µM
same,AC50,[1],22 µM
same,AC50,Glucocorticoid receptor,> 30 µM
CO[C@@H]1[C@@H](OC(N)=O)[C@@H](O)[C@H](Oc2ccc3c(O)c(NC(=O)c4ccc(O)c(CC=C(C)C)c4)c(=O)oc3c2C)OC1(C)C [NOVOBIOCIN],AC50,[4],> 30 µM
same,AC50,[1],> 30 µM
same,AC50,Glucocorticoid receptor,> 30 µM
same,AC50,Estrogen receptor [2],> 30 µM
same,AC50,Estrogen receptor [3],> 30 µM
NC(=O)C1(N2CCCCC2)CCN(CCCN2c3ccccc3CCc3ccccc32)CC1 [CARPIPRAMINE],AC50,Androgen receptor,> 30 µM
CCOCC(O)COc1ccc(NC(=O)CC[S+](C)C)cc1 (stereo unspecified),AC50,[1],> 30 µM
same,AC50,Glucocorticoid receptor,> 30 µM
same,AC50,Estrogen receptor [2],> 30 µM
same,AC50,Estrogen receptor [3],> 30 µM
CCCCCCCCCCCCCCCC(=O)OC[C@H](COP(=O)([O-])OCC[N+](C)(C)C)OC(=O)CCCCCCCCCCCCCCC [COLFOSCERIL PALMITATE],AC50,Adenosine receptor A1,> 30 µM
same,AC50,Androgen receptor,> 30 µM
O=c1[nH]cc(F)c(=O)[nH]1 [FLUOROURACIL],AC50,Adenosine receptor A1,> 30 µM
CC#CC(=O)N1CCC[C@H]1c1nc(-c2ccc(C(=O)Nc3ccccn3)cc2)c2c(N)nccn12 [ACALABRUTINIB],AC50,Adenosine receptor A1,> 30 µM
same,AC50,Androgen receptor,> 30 µM
C[C@@H](O)[C@H]1C(=O)N2C(C(=O)O)=C(SCCN=CN)C[C@H]12 [IMIPENEM ANHYDROUS],AC50,[4],> 300 µM
same,AC50,[1],> 2400 µM
same,AC50,Glucocorticoid receptor,> 300 µM
same,AC50,Estrogen receptor [2],> 300 µM
same,AC50,Estrogen receptor [3],> 300 µM
O=C(Cc1cccs1)N[C@@H]1C(=O)N2C(C(=O)[O-])=C(C[n+]3ccccc3)CS[C@H]12 [CEPHALORIDINE],AC50,[1],> 30 µM
same,AC50,Adenosine receptor A1,> 30 µM
same,AC50,Androgen receptor,> 30 µM
NCC1(CC(=O)O)CCCCC1 [GABAPENTIN],AC50,[4],> 30 µM
same,AC50,[1],> 30 µM
same,AC50,Glucocorticoid receptor,> 30 µM
CN(C)CCc1c[nH]c2ccc(CS(=O)(=O)N3CCCC3)cc12 [ALMOTRIPTAN],AC50,[1],> 30 µM
O=C(O)[C@@H](S)[C@@H](S)C(=O)O,AC50,Adenosine receptor A1,> 30 µM
